Results on 13 molecules are retold here after article PMC7663272, “Discovery of Tricyclic Pyranochromenone as Novel Bruton’s Tyrosine Kinase Inhibitors with In Vivo Antirheumatic Activity” (International Journal of Molecular Sciences, 2020).

In one test the test system is BTK. Also on record: method as in not given. Particulars: reported tricyclic BTK inhibitors, printed in Figure 2b; ref not given; cited from earlier work.
The target of a further test is T1, BTK-wt (Homo sapiens, UniProt Q06187).
T1 construct: purchased Reaction Biology Corporation
T1 sequence (Q06187 whole entry): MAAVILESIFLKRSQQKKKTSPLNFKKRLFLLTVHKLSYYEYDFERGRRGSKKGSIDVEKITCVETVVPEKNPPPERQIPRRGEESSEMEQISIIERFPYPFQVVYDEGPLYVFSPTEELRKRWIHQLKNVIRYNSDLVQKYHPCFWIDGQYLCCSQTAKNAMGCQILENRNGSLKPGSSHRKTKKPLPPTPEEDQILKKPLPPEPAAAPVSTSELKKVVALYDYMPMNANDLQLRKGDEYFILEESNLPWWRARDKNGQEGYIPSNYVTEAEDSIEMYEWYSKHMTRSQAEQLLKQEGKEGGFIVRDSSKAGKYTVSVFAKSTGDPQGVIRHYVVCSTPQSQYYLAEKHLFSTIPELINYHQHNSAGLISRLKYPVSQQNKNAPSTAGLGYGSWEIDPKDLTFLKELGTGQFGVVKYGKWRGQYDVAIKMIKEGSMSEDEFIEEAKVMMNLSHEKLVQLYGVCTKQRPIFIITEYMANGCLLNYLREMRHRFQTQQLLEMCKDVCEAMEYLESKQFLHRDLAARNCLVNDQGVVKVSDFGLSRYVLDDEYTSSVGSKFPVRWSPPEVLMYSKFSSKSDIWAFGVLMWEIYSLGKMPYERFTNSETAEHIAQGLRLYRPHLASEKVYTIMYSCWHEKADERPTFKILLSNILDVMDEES
Put plainly: HotSpot kinase enzymatic assay, BTK-wt. The test is classed as biochemical. Particulars: for inhibition at 10 µM: vs negative control (DMSO), mean of two separate experiments, NA = not active at 10 µM, read-out: % Inhibition (10 µM) BTK-wt; for IC50: HotSpot assay, 10 μM ATP, GraphPad Prism. Here is the method: (§1) Kinase enzymatic assays for BTK, BMX, TXK, TEC, ITK, EGFR, ERBB2, ERBB4, and JAK3 were performed at Reaction Biology Corporation (www.reactionbiology.com, Malvern, PA, USA) using the HotSpot assay platform. Briefly, specific kinase/substrate pairs and the required cofactors were prepared in a reaction buffer comprising 20 mM HEPES (pH 7.5), 10 mM MgCl2, 1 mM EGTA, 0.02% Brij35, 0.02 mg/mL BSA, 0.1 mM Na3VO4, 2 mM DTT, and 1% DMSO. The compounds were added to the reaction mixture and allowed to incubate. Approximately 20 min later, a mixture of ATP (Sigma-Aldrich, St. Louis, MO, USA) and ^33P ATP (PerkinElmer, Waltham, MA, USA) was added to the reaction mixture at a final concentration of 10 μM. The reactions were performed at room temperature for 120 min; subsequently, the reactions were spotted onto P81 ion exchange filter papers (Whatman Inc., Maidstone, UK). […] GraphPad Prism software was used to obtain the IC50 values and perform curve fitting.

For the next test, the target named is T2, BTK-C481S (Homo sapiens, UniProt Q06187, C481S).
T2 construct: purchased Reaction Biology Corporation
T2 sequence (Q06187 whole entry C481S): as the sequence (Q06187 whole entry) above, with C481S counted along it
Nature of the test: HotSpot kinase enzymatic assay, mutant BTK. Particulars: vs negative control (DMSO), mean of two separate experiments. The test is classed as biochemical.
From the text: To confirm the role of the electrophilic warhead groups, the acryloyl group of compound 8 was replaced with methylacryloyl (11) and propionyl (12) groups, which are less electrophilic or lack an electrophilic feature. […] The significant difference in the inhibitory activity of compounds 8 and 12 could explain the critical role of the acryloyl moiety in potentiating the BTK inhibitory activity of compound 8. […] It was also confirmed by comparison of the inhibitory activity of the representative compounds (8–10) with electrophilic warheads against wild-type BTK (BTK-wt) and mutant BTK (BTK-C481S).
as §1, with “UK). Any unbound phosphate was removed by thoroughly washing the filter papers with 0.75% phosphoric acid.” for “UK).”

For test [1], the system named is collagen-induced arthritis (CIA). Put plainly: Murine model of collagen-induced arthritis (CIA). The test is classed as in vivo. To be noted: mice, 0.3 mg/kg, daily oral; t-test. As for the experimental part: The in vivo efficacy of compound 8 was evaluated in a murine inflammatory model of collagen-induced arthritis (CIA). The study included four groups: a vehicle-treated control group and three treatment groups. The treatment groups comprised a dexamethasone-treated group, in which dexamethasone served as the positive control, and two treatment groups, in which animals were treated with compound 8 at doses of 10 and 50 mg/kg. Compound 8 was administered once daily for 15 days by oral gavage, and the in vivo efficacy was evaluated by measuring the clinical score and foot volume. […] There were no significant changes in the body weights of animals in all the treatment groups (data not shown) during treatment.
The animal study was approved by the Institutional Animal Care and Use Committee (IACUC) of the Korea Research Institute of Bioscience and Biotechnology on March 15, 2017, under approval number KRIBB-AEC-17090. Male DBA1/JNCrli mice (7 weeks old) were purchased from Japan CRL, Inc. The mice were housed in specific pathogen-free (SPF) conditions and were allowed ad libitum access to food and water. After 7 days of acclimatization, the mice were immunized with 0.05 mL of a type II collagen emulsion (Hooke Kit^TM Chicken Collagen, Cat. No. EK-0210 from Hooke) and Freund’s complete adjuvant by subcutaneous injection at 1.5 cm distal from the base of the tail. After 21 days, the immunized mice were administered a booster injection with 0.05 mL of a type II collagen emulsion (Hooke Kit^TM Chicken Collagen, Cat. No. EK-0211 from Hooke) and Freund’s incomplete adjuvant. The emulsions were prepared according to the manufacturer’s instructions. On day 21, the mice with CIA were randomized into four groups. The animals in the four groups were administered either 0.3 mg/kg dexamethasone (n = 5), 10 mg/kg compound 8 (n = 5), 50 mg/kg compound 8 (n = 5), or vehicle (n = 5), once a day, for […], orally. The vehicle, in which all test compounds were suspended, comprised DMAC (10%), Tween 80 (10%), and DW (80%). Clinical arthritis scores and body weights were assessed three times per week for 15 days. The paw volumes were measured using a LE7500 plethysmometer (Panlab, Barcelona, Spain) on days 0 and 42.

“Also recorded” adds a separate entry of the source. A value given as a limit tells only on which side of the number the result lay.

Regarding `Cc1c(-c2c(F)cc(C(N)=O)c3[nH]c4c(c23)CC[C@H](C(C)(C)O)C4)cccc1-n1c(=O)c2cccc(F)c2n(C)c1=O` [BMS-986142], the IC50 with BTK is 0.0005 µM.
As to `CC(C)=CC(=O)O[C@H]1Cc2cc3ccc(=O)oc3cc2OC1(C)C` [Compound 1, Decursin], on BTK-wt, the “BTK inhibitory activity (in words)” value is reported as “weak inhibitory activity”, the inhibition at 10 µM is 32% and the IC50 is more than 10 µM.
`CC1(C)Oc2cc3oc(=O)ccc3cc2C[C@@H]1O` [Compound 2, S-(+)-Decursinol]: at BTK-wt, the “BTK inhibitory activity (in words)” value is “inactive”, the inhibition at 10 µM is 7.7% and the IC50 is more than 10 µM.
For the molecule `C/C=C/C(=O)O[C@H]1Cc2cc3ccc(=O)oc3cc2OC1(C)C` [Compound 3, (7S)-(+)-But-2-enoic acid, 8,8-dimethyl-2-oxo-6,7-dihydro-2H,8H-pyrano[3,2-g]chromen-7-ylester], on BTK-wt, the “BTK inhibitory activity (in words)” value is listed as “minimal inhibitory activity”, the inhibition at 10 µM turned out to be 11.3% and the IC50 is more than 10 µM.
Turning to `CC1(C)Oc2cc3oc(=O)ccc3cc2C[C@@H]1OC(=O)/C=C/CBr` [Compound 4], at BTK-wt, the “BTK inhibitory activity (in words)” value is “minimal inhibitory activity”, the inhibition at 10 µM was found to be 20.3% and the IC50 is more than 10 µM.
`CC1(C)Oc2cc3oc(=O)ccc3cc2C[C@@H]1OC(=O)/C=C/c1ccccc1` [Compound 5, (7S)-(+)-trans-Cinnamic acid, 8,8-dimethyl-2-oxo-6,7-dihydro-2H,8H-pyrano[3,2-g]chromen-7-yl ester]: on BTK-wt, the “BTK inhibitory activity (in words)” value is “no BTK inhibitory activity” and the IC50 was more than 10 µM.
With `CC1(C)Oc2cc3oc(=O)ccc3cc2C[C@@H]1OC(=O)/C=C/c1ccc(F)cc1` [Compound 6, (7S)-(+)-trans-4-Fluorocinnamic acid, 8,8-dimethyl-2-oxo-6,7-dihydro-2H,8H-pyrano[3,2-g]chromen-7-yl ester], at BTK-wt, the “BTK inhibitory activity (in words)” value is “no BTK inhibitory activity” and the IC50 is more than 10 µM.
`CC#CC(=O)O[C@H]1Cc2cc3ccc(=O)oc3cc2OC1(C)C` [Compound 7, (7S)-(+)-But-2-yonic acid, 8,8-dimethyl-2-oxo-6,7-dihydro-2H,8H-pyrano[3,2-g]chromen-7-ylester]: at BTK-wt, the “BTK inhibitory activity (in words)” value was “relatively low BTK inhibitory activity”, the inhibition at 10 µM came out at 34.5% and the IC50 came out at 7 µM.
In the case of `C=CS(=O)(=O)O[C@H]1Cc2cc3ccc(=O)oc3cc2OC1(C)C` [Compound 9, (7S)-(+)-Ethenesulfonic acid, 8,8-dimethyl-2-oxo-6,7-dihydro-2H,8H-pyrano [3,2-g]chromen-7-yl ester], the inhibition at 10 µM amounted to 15.8% at BTK-C481S and 95.8% on BTK-wt. Also, half-maximal inhibition against BTK-wt (IC50) required 0.9 µM.
Take `CC1(C)Oc2cc3oc(=O)ccc3cc2C[C@@H]1OC(=O)CCl` [Compound 10, (7S)-(+)-Chloroacetic acid, 8,8-dimethyl-2-oxo-6,7-dihydro-2H,8H-pyrano [3,2-g]chromen-7-ylester]: the figures for the inhibition at 10 µM at BTK-C481S and at BTK-wt were 18.6% and 99.2%, respectively. The molecule further returned an IC50 on BTK-wt of 0.5 µM.
In the case of `C=C(C)C(=O)O[C@H]1Cc2cc3ccc(=O)oc3cc2OC1(C)C` [Compound 11, (7S)-(+)-2-Methylacrylic acid, 8,8-dimethyl-2-oxo-6,7-dihydro-2H,8H-pyrano[3,2-g]chromen-7-yl ester], at BTK-wt, the “BTK inhibitory activity (in words)” value is recorded as “completely diminished” and the IC50 was more than 10 µM.
For `CCC(=O)O[C@H]1Cc2cc3ccc(=O)oc3cc2OC1(C)C` [Compound 12, (7S)-(+)-Propionic acid, 8,8-dimethyl-2-oxo-6,7-dihydro-2H,8H-pyrano [3,2-g]chromen-7-ylester], on BTK-wt, the “BTK inhibitory activity (in words)” value is on record as “completely diminished; also recorded: BTK inhibitory activity was lost” and the IC50 is more than 10 µM.
Turning to `C[C@@H]1C[C@H]2[C@@H]3CCC4=CC(=O)C=C[C@]4(C)[C@@]3(F)[C@@H](O)C[C@]2(C)[C@@]1(O)C(=O)CO` [dexamethasone, reference compound], the “clinical scores vs control” value in test [1] is reported as “differed significantly from those with the control”.

As a reminder, the IC50 is the concentration that gives 50% inhibition. The inhibition is how much of the control response was suppressed.
